According to US9890166B2, “Imidazopyrrolidine derivatives and their use in the treatment of disease” (NOVARTIS AG, priority 2013, dated 2018):

Tests used:
BRD4 (His-Brd4(44-477)) = BRD4 (His-Brd4(44-477)) (Homo sapiens (Human), UniProt O60885); test: TR-FRET in-vitro binding assay for BRD4; conditions: single determination or n ≧ 2 independent determinations, read-out: Biochemical IC50 BRD4
How it was run: (§1)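 TR-FRET binding with His-tagged bromodomain constructs, 8-point compound dilutions from 10 mM DMSO stocks. Reactions incubated 35 min at 30° C in 13.55 μL, read on an EnVision multilabel reader.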

BRD2 (His-Brd2(60-472)) = BRD2 (His-Brd2(60-472)) (Homo sapiens (Human), UniProt P25440); test: TR-FRET in-vitro binding assay for BRD2; conditions: single determination or n ≧ 2 independent determinations, read-out: Biochemical IC50 BRD2
Sequence of BRD2 (His-Brd2(60-472)) (P25440 60-472): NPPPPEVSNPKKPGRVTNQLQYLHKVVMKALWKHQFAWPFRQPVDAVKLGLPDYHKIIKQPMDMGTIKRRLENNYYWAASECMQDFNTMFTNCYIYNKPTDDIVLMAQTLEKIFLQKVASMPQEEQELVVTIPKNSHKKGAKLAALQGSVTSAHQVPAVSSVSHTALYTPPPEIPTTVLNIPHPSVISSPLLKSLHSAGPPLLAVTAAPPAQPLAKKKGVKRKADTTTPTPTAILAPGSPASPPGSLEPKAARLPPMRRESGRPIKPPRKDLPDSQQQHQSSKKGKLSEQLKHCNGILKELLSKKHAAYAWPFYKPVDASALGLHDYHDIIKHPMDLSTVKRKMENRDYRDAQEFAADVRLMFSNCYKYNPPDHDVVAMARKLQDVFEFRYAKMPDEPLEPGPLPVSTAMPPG
How it was run: as §1

BRD3 (His-Brd3(20-477)) = BRD3 (His-Brd3(20-477)) (Homo sapiens (Human), UniProt Q15059); test: TR-FRET in-vitro binding assay for BRD3; conditions: single determination or n ≧ 2 independent determinations, read-out: Biochemical IC50 BRD3
Sequence of BRD3 (His-Brd3(20-477)) (Q15059 20-477): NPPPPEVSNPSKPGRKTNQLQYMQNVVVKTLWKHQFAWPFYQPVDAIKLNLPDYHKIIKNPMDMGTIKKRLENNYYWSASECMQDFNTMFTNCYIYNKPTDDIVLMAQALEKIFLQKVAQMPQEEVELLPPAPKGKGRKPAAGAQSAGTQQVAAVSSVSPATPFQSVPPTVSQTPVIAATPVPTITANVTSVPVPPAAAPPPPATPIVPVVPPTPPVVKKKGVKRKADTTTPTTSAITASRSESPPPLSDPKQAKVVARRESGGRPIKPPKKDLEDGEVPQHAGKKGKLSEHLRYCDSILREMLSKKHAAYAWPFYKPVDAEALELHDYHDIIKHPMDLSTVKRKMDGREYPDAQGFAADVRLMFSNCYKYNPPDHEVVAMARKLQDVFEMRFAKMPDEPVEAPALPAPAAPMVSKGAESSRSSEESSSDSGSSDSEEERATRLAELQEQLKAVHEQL
How it was run: as §1

[1] = target: CREBBP bromodomain (His-CREBBP(1081-1197)) (Homo sapiens (Human), UniProt Q92793); test: AlphaScreen in-vitro binding assay for CREBBP; conditions: single determination or n ≧ 2 independent determinations, read-out: Biochemical IC50 CREBBP
Sequence of CREBBP bromodomain (His-CREBBP(1081-1197)) (Q92793 1081-1197): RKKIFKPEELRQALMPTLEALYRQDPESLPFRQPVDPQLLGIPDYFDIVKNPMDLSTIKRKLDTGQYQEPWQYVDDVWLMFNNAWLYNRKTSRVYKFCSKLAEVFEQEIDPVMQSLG
How it was run: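 Reactions at 30 °C for 35 min, then Ni-chelate acceptor and streptavidin donor beads in HEPES pH 7.5, NaCl, Tween20, BSA, 60 min at room temperature. Eight-point compound series; IC50 by non-linear regression of percent inhibition.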

THP-1 cells = test: Cell growth inhibition assay (CellTiter-Glo), THP-1; conditions: for GI50: Homo sapiens, THP-1, read-out: THP-1 GI50; for THP-1 TGI: THP-1 cells, total growth inhibition, CellTiter-Glo;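 on all read-outs here: viability read as cellular ATP luminescence after 4 days, 3-fold dilution series from 10 µM, DMSO vehicle-treated cells taken as 100%, cell-free medium wells as −100%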
K-562 cells = test: Cell growth inhibition assay (CellTiter-Glo), K-562; conditions: for GI50: Homo sapiens, K562, read-out: K-562 GI50; for K-562 TGI: K-562 cells, total growth inhibition, CellTiter-Glo;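 on all read-outs here: cellular ATP measured by luminescence after 4 days of exposure, 3-fold dilution series from 10 µM, DMSO vehicle-treated cells define 100%, cell-free medium wells −100%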
MV-4-11 cells = test: Cell growth inhibition assay (CellTiter-Glo), MV-4-11; conditions: for GI50: Homo sapiens, MV4-11, read-out: MV-4-11 GI50; for MV-4-11 TGI: MV-4-11 cells, total growth inhibition, CellTiter-Glo;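 on all read-outs here: cellular ATP luminescence after 4 days, 3-fold dilution series from 10 µM top dose, vehicle (0.1% DMSO) set to 100%, cell-free medium set to −100%, day 0 corrected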

Compound Cc1cc(N2C(=O)c3nc(C4=CCOCC4)n(C(C)C)c3C2c2ccc(Cl)cc2)cc2c1nnn2C (stereo not drawn) [Example 79, 6-(4-chlorophenyl)-2-(3,6-dihydro-2H-pyran-4-yl)-5-(1,4-dimethyl-1H-benzo[d][1,2,3]triazol-6-yl)-1-isopropyl-5,6-dihydropyrrolo[3,4-d]imidazol-4(1H)-one] has an IC50 (BRD4 (His-Brd4(44-477))) of 26 nM, an IC50 (BRD2 (His-Brd2(60-472))) of 46 nM and an IC50 (BRD3 (His-Brd3(20-477))) of 21.5 nM. The IC50 [1] was 3400 nM, the GI50 (THP-1 cells) was 7.92 nM and the “THP-1 TGI” value (THP-1 cells) was 17.9 nM. The GI50 (K-562 cells) was 29.6 nM, the “K-562 TGI” value (K-562 cells) was greater than 10000 nM and the GI50 (MV-4-11 cells) was 5.58 nM. For the same compound, the “MV-4-11 TGI” value (MV-4-11 cells) was 11.1 nM.
Cc1cc(N2C(=O)c3nc(C4CCOCC4)n(C(C)C)c3C2c2ccc(Cl)cc2)cc2c1nnn2C (stereo not drawn) [Example 80, 6-(4-chlorophenyl)-5-(1,4-dimethyl-1H-benzo[d][1,2,3]triazol-6-yl)-1-isopropyl-2-(tetrahydro-2H-pyran-4-yl)-5,6-dihydropyrrolo[3,4-d]imidazol-4(1H)-one] gave an IC50 (BRD4 (His-Brd4(44-477))) of 13 nM, an IC50 (BRD2 (His-Brd2(60-472))) of 17 nM and an IC50 (BRD3 (His-Brd3(20-477))) of 12 nM. For the same compound, the IC50 [1] was 1450 nM, the GI50 (THP-1 cells) was 5.53 nM and the “THP-1 TGI” value (THP-1 cells) was 15.4 nM. For the same compound, the GI50 (K-562 cells) was 28.8 nM, the “K-562 TGI” value (K-562 cells) was greater than 10000 nM and the GI50 (MV-4-11 cells) was 4.14 nM. The “MV-4-11 TGI” value (MV-4-11 cells) was 9.45 nM.
For Cc1cc(N2C(=O)c3nc(C4=CCOCC4)n(C(C)C)c3[C@H]2c2ccc(Cl)cc2)cc2c1nnn2C [Example 81, (R)-6-(4-chlorophenyl)-2-(3,6-dihydro-2H-pyran-4-yl)-5-(1,4-dimethyl-1H-benzo[d][1,2,3]triazol-6-yl)-1-isopropyl-5,6-dihydropyrrolo[3,4-d]imidazol-4(1H)-one], the IC50 (BRD4 (His-Brd4(44-477))) was less than 11 nM, the IC50 (BRD2 (His-Brd2(60-472))) was less than 11 nM and the IC50 (BRD3 (His-Brd3(20-477))) was less than 11 nM. For the same compound, the IC50 [1] was 1500 nM, the GI50 (THP-1 cells) was 3.82 nM and the “THP-1 TGI” value (THP-1 cells) was 10.7 nM. The GI50 (K-562 cells) was 19.5 nM, the “K-562 TGI” value (K-562 cells) was greater than 10000 nM and the GI50 (MV-4-11 cells) was 3.42 nM. For the same compound, the “MV-4-11 TGI” value (MV-4-11 cells) was 5.405 nM.
Compound Cc1cc(N2C(=O)c3nc(C4CCOCC4)n(C(C)C)c3[C@H]2c2ccc(Cl)cc2)cc2c1nnn2C [Example 82, (R)-6-(4-chlorophenyl)-5-(1,4-dimethyl-1H-benzo[d][1,2,3]triazol-6-yl)-1-isopropyl-2-(tetrahydro-2H-pyran-4-yl)-5,6-dihydropyrrolo[3,4-d]imidazol-4(1H)-one] has an IC50 (BRD4 (His-Brd4(44-477))) of less than 11 nM, an IC50 (BRD2 (His-Brd2(60-472))) of 13 nM and an IC50 (BRD3 (His-Brd3(20-477))) of less than 11 nM. For the same compound, the IC50 [1] was 1080 nM, the GI50 (THP-1 cells) was 2.54 nM and the “THP-1 TGI” value (THP-1 cells) was 9.82 nM. The GI50 (K-562 cells) was 8.96 nM, the “K-562 TGI” value (K-562 cells) was greater than 10000 nM and the GI50 (MV-4-11 cells) was 1.57 nM. For the same compound, the “MV-4-11 TGI” value (MV-4-11 cells) was 6.03 nM.
Work on COc1ccc(-c2nc3c(n2C(C)C)C(c2ccc(Cl)cc2)N(c2cc(C)c4nnn(C)c4c2)C3=O)cn1 (stereo not drawn) [Example 83, 6-(4-chlorophenyl)-5-(1,4-dimethyl-1H-benzo[d][1,2,3]triazol-6-yl)-1-isopropyl-2-(6-methoxypyridin-3-yl)-5,6-dihydropyrrolo[3,4-d]imidazol-4(1H)-one] yielded an IC50 (BRD4 (His-Brd4(44-477))) of 24 nM, an IC50 (BRD2 (His-Brd2(60-472))) of 65 nM and an IC50 (BRD3 (His-Brd3(20-477))) of 30 nM. For the same compound, the IC50 [1] was greater than 37000 nM, the GI50 (THP-1 cells) was 27.1 nM and the “THP-1 TGI” value (THP-1 cells) was 72.2 nM. The GI50 (K-562 cells) was 105 nM, the “K-562 TGI” value (K-562 cells) was greater than 10000 nM and the GI50 (MV-4-11 cells) was 23.9 nM. The “MV-4-11 TGI” value (MV-4-11 cells) was 46.4 nM.
Compound Cc1cc(N2C(=O)c3nc(C4=CCOCC4)n(C(C)C)c3[C@H]2c2ccc(Cl)cc2)cn2c(C)nnc12 [Example 84, (R)-6-(4-chlorophenyl)-2-(3,6-dihydro-2H-pyran-4-yl)-5-(3,8-dimethyl-[1,2,4]triazolo[4,3-a]pyridin-6-yl)-1-isopropyl-5,6-dihydropyrrolo[3,4-d]imidazol-4(1H)-one] has an IC50 (BRD4 (His-Brd4(44-477))) of 18 nM, an IC50 (BRD2 (His-Brd2(60-472))) of 36 nM and an IC50 (BRD3 (His-Brd3(20-477))) of 24 nM. The IC50 [1] was 3500 nM, the GI50 (THP-1 cells) was 44 nM and the “THP-1 TGI” value (THP-1 cells) was 99.8 nM. The GI50 (K-562 cells) was 73.2 nM, the “K-562 TGI” value (K-562 cells) was greater than 10000 nM and the GI50 (MV-4-11 cells) was 14.6 nM. For the same compound, the “MV-4-11 TGI” value (MV-4-11 cells) was 29.4 nM.
